In patent USRE31071E, “6-Aza-3H-1,4-benzodiazepines” (Deutsche Gold- und Silber-Scheideanstalt vormals Roessler, priority 1971, dated 1982):

Tests used:
[1] = tested on: mice; assay: rotating rod test (ataxic activity); format: in vivo; settings: quotient of ataxic to anxiolytic activity, orally, should be as large as possible
Excerpt: Furthermore, there is given in this table the ataxic activity. The ratio of ataxic activity to the anxiolytic activity is of the greatest significance in using a material as an anxiolytic agent. This quotient should be as large as possible since an ataxic activity is undesirable. Ataxic activity means that the coordination of the muscular movements is disturbed--ataxicdisturbance of the muscular coordination. This means at the dosage at which a marked anxiolytic acitvity is present there should not be found a noteworthy ataxice. The toxicity, in case the data exists above the ataxic activity, is no longer important since the amount which is toxic is always considerably higher than the amount at which 50% (ED50) of the animals have an ataxic effect. The ataxic effect was measured on mice on the pattern of the rotating rod.
In the rotating rod test the animals (mice) were firest placed on a rotating rod 15 minutes after the application of the test material and then were placed on the rotating rod every 15 minutes and the animals which fell down within 2 minutes measured positive. From the number of animals which fell down expressed in percent there were drawn time-effect curves and the areas defined by it entered as percent effect in a probability network, the dosage-effect-line prepared and the ED50 read off. The ED50 mg/kg body weight of the mouse again specifies the dosage at which 50% of all the animals show a typical ataxic effect.

[2] = First Int. Pharmacological Meeting, Vol. 7; cited from earlier work
[3] = in words; cited from earlier work
[4] = J. Amer. Med. Ass. Vol. 170 (1959); cited from earlier work

Compound | ED50 Rotating Rod / ED50 Card. Shock [1] | also measured
CC1N=C(c2ccccc2)c2nc(Cl)ccc2NC1=O (racemic) [Example 4, 3-Methyl-5-phenyl-6-aza-7-chloro-1,2-dihydro-3H-1,4-benzodiazepinone-(2)] | 4.3 | –
O=C1CN=C(c2ccccc2Cl)c2nc(Cl)ccc2N1 [Example 6, 5-(o-Chlorophenyl)-6-aza-7-chloro-1,2-dihydro-3H-1,4-benzodiazepinone-(2)] | 16.5 | –
CN1C(=O)CN=C(c2ccccc2F)c2nc(Cl)ccc21 [Example 9, 1-Methyl-5-(o-fluorophenyl)-6-aza-7-chloro-1,2-dihydro-3H-1,4-benzodiazepinone-(2)] | 6.1 | –
O=C1CN=C(c2ccccc2F)c2nc(Cl)ccc2N1 [Example 10, 5-(-Fluorophenyl)-6-aza-7-chloro-1,2-dihydro-3H-1,4-benzodiazepinone-(2)] | 10.4 | –
O=C(O)CCC(=O)OC1N=C(c2ccccc2Cl)c2nc(Cl)ccc2NC1=O (stereo not drawn) [Example 12] | 13.5 | –
O=C1Nc2ccc(Cl)nc2C(c2ccccc2Cl)=NC1O (stereo not drawn) [Example 13, 3-Hydroxy-5-o-chlorophenyl-6-aza-7-chloro-1,2-dihydro-3H-1,4-benzodiazepinone-(2)] | 15.0 | –
CC(=O)OC1N=C(c2ccccc2Cl)c2nc(Cl)ccc2N(C(C)=O)C1=O (stereo not drawn) [Example 15, 1-Acetyl-3-acetoxy-5-(o-chlorophenyl)-6-aza-7-chloro-1,2-dihydro-3H-1,4-benzodiazepinone-(2)] | 6.7 | –
CN1C(=O)CN=C(c2ccccc2)c2nc(Cl)ccc21 [Example 17, 1-Methyl-5-phenyl-6-aza-7-chloro-1,2-dihydro-3H-1,4-benzodiazepinone-(2)] | 6.2 | –
C=CCN1C(=O)CN=C(c2ccccc2)c2nc(Cl)ccc21 [Example 18, 1-Allyl-5-phenyl-6-aza-7-chloro-1,2-dihydro-3H-1,4-benzodiazepinone-(2)] | 8.2 | –
O=C1CN=C(c2ccccc2)c2nc(Cl)ccc2N1CC1CC1 [Example 19] | 7.7 | –
CN1C(=O)CN=C(c2ccccc2Cl)c2nc(Cl)ccc21 [Example 21, 1-Methyl-5-(o-chlorophenyl)-6-aza-7-chloro-1,2-dihydro-3H-1,4-benzodiazepinone-(2)] | 10.2 | –
CN1C(=S)CN=C(c2ccccc2Cl)c2nc(Cl)ccc21 [Example 24, 1-Methyl-5-(o-chlorophenyl)-6-aza-7-chloro-1,2-dihydro-3H-1,4-benzodiazepinthione-(2)] | 12.5 | –
CC(NN)c1ccccc1 (stereo not drawn) [alpha phenyl-ethyl hydrazine] | – | stimulating activity / sedative action [2]: strong stimulating activity
CN(C)CCOC(C)(c1ccccc1)c1ccc(Cl)cc1 (stereo not drawn) [chlorphenoxamine] | – | antihistamine activity [3]: antihistamine activity reduced; anticholinergic activity [4]: strengthening of its anticholinergic activity
